The text below walks through data of PubChem BioAssay AID256 (DTP/NCI, 2004).

This test has as its system CD2F1 mice, L1210 leukemia ip, survival T/C. Briefly: NCI In Vivo Anticancer Drug Screen. Data for tumor model L1210 Leukemia (intraperitoneal) in CD2F1 (CDF1) mice. To be noted: higher = longer survival. Put shortly: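 Ratio T/C, where T is the treated-group value and C the vehicle-dosed control value, from mice implanted with a transplantable tumor.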

SMILES strings stand for the structures. “And” between values parts separate entries of the source, which are not always exact repeats. Identical values can stand only once. Toxic doses and inconclusive results are not listed.

As to `O=C/C(Cl)=C(/Cl)C(=O)O`, the T/C was 100 % of control (endpoint: mean survival time, dose: 1.25 mg/kg/injection, schedule: Q01DX009 (ip), vehicle: saline with Tween-80); 98 % of control (endpoint: mean survival time, dose: 2.5 mg/kg/injection, schedule: Q01DX009 (ip), vehicle: saline with Tween-80); 108 % of control (endpoint: mean survival time, dose: 5.0 mg/kg/injection, schedule: Q01DX009 (ip), vehicle: saline with Tween-80); 103 % of control (endpoint: mean survival time, dose: 6.25 mg/kg/injection, schedule: Q04DX002 (ip), vehicle: saline with Tween-80); 104 % of control (endpoint: mean survival time, dose: 10.0 mg/kg/injection, schedule: Q01DX009 (ip), vehicle: saline with Tween-80); 107 % of control (endpoint: mean survival time, dose: 12.5 mg/kg/injection, schedule: Q04DX002 (ip), vehicle: saline with Tween-80). For the same molecule, the T/C runs as follows: (endpoint: mean survival time, dose: 20.0 mg/kg/injection, schedule: Q01DX009 (ip), vehicle: saline with Tween-80) 103 % of control; (endpoint: mean survival time, dose: 25.0 mg/kg/injection, schedule: Q04DX002 (ip), vehicle: saline with Tween-80) 111 % of control.

Turning to `C=C(CN(C)C)c1ccccn1`, for the setting “endpoint: mean survival time, dose: 75.0 mg/kg/injection, schedule: Q01DX001 (ip), vehicle: other”, the T/C is 100 % of control.

Consider `O=C1C=CC(=O)N1c1ccc2c(c1)OCO2`, for which the T/C is 91 % of control (endpoint: mean survival time, dose: 6.25 mg/kg/injection, schedule: Q01DX009 (ip), vehicle: saline with Tween-80) and 86 % of control (endpoint: mean survival time, dose: 12.5 mg/kg/injection, schedule: Q01DX009 (ip), vehicle: saline with Tween-80).

In the case of `O/N=C1\c2ccccc2-c2ccc(F)cc21`, the T/C runs as follows: (endpoint: mean survival time, dose: 50.0 mg/kg/injection, schedule: Q01DX001 (ip), vehicle: carboxymethylcellulose (CMC)) 104 % of control; (endpoint: mean survival time, dose: 100.0 mg/kg/injection, schedule: Q01DX001 (ip), vehicle: carboxymethylcellulose (CMC)) 108 % of control; (endpoint: mean survival time, dose: 200.0 mg/kg/injection, schedule: Q01DX001 (ip), vehicle: carboxymethylcellulose (CMC)) 104 % of control; (endpoint: mean survival time, dose: 400.0 mg/kg/injection, schedule: Q01DX001 (ip), vehicle: carboxymethylcellulose (CMC)) 102 % of control.

Turning to `CC(=O)NC1CC(n2cnc3c(=O)[nH]c(N)nc32)OC1C(C)O` (stereo not given), the T/C by setting is: (endpoint: median survival time, dose: 12.5 mg/kg/injection, schedule: Q01DX005 (ip), vehicle: distilled water + Tween-80) 101 % of control; (endpoint: median survival time, dose: 25.0 mg/kg/injection, schedule: Q01DX005 (ip), vehicle: distilled water + Tween-80) 102 % of control; (endpoint: median survival time, dose: 50.0 mg/kg/injection, schedule: Q01DX005 (ip), vehicle: distilled water + Tween-80) 100 % of control; (endpoint: median survival time, dose: 100.0 mg/kg/injection, schedule: Q01DX005 (ip), vehicle: distilled water + Tween-80) 89 % of control.

As to `O=C1CSC(=S)N1C1OC(CO)C(O)C1O` (stereo not given), the T/C by setting is: (endpoint: mean survival time, dose: 12.5 mg/kg/injection, schedule: Q01DX005 (ip), vehicle: distilled water + Tween-80) 111 % of control; (endpoint: mean survival time, dose: 25.0 mg/kg/injection, schedule: Q01DX005 (ip), vehicle: distilled water + Tween-80) 102 % of control; (endpoint: mean survival time, dose: 50.0 mg/kg/injection, schedule: Q01DX005 (ip), vehicle: distilled water + Tween-80) 102 % of control; (endpoint: mean survival time, dose: 100.0 mg/kg/injection, schedule: Q01DX005 (ip), vehicle: distilled water + Tween-80) 101 % of control; (endpoint: mean survival time, dose: 200.0 mg/kg/injection, schedule: Q01DX005 (ip), vehicle: distilled water + Tween-80) 92 % of control.

With `COc1cc(NCCCNCC(C)(C)C)c2ncccc2c1`, the T/C (endpoint: mean survival time, dose: 1.25 mg/kg/injection, schedule: Q01DX009 (ip), vehicle: Klucel (hydroxypropylcellulose) (HPC)) is 98 % of control; the T/C (endpoint: mean survival time, dose: 2.5 mg/kg/injection, schedule: Q01DX009 (ip), vehicle: Klucel (hydroxypropylcellulose) (HPC)) was 105 % of control; the T/C (endpoint: mean survival time, dose: 5.0 mg/kg/injection, schedule: Q01DX009 (ip), vehicle: Klucel (hydroxypropylcellulose) (HPC)) was 100 % of control; the T/C (endpoint: mean survival time, dose: 10.0 mg/kg/injection, schedule: Q01DX009 (ip), vehicle: Klucel (hydroxypropylcellulose) (HPC)) is 105 % of control.

Take `COc1c(C)c2c(c(O)c1CC(=O)Nc1ccccc1C(=O)O)C(=O)OC2`: the T/C is, setting by setting: (endpoint: mean survival time, dose: 100.0 mg/kg/injection, schedule: Q04DX002 (ip), vehicle: saline) 96 % of control; (endpoint: mean survival time, dose: 200.0 mg/kg/injection, schedule: Q04DX002 (ip), vehicle: saline) 100 % of control; (endpoint: mean survival time, dose: 400.0 mg/kg/injection, schedule: Q04DX002 (ip), vehicle: saline) 91 % of control.

For `CCCCCCCCC(C)c1cccc(C(C)CCCCCCCC)c1O` (stereo not given), the T/C (endpoint: mean survival time, dose: 200.0 mg/kg/injection, schedule: Q01DX001 (ip), vehicle: saline with Tween-80) is 103 % of control and the T/C (endpoint: mean survival time, dose: 400.0 mg/kg/injection, schedule: Q01DX001 (ip), vehicle: saline with Tween-80) was 103 % of control.

As to `O=C(Nc1ccc(N=C=S)cc1Cl)c1cc(Cl)cc(Cl)c1O`, the T/C runs as follows: (endpoint: mean survival time, dose: 6.25 mg/kg/injection, schedule: Q01DX009 (ip), vehicle: Klucel (hydroxypropylcellulose) (HPC)) 91 % of control and 104 % of control; (endpoint: mean survival time, dose: 12.5 mg/kg/injection, schedule: Q01DX009 (ip), vehicle: Klucel (hydroxypropylcellulose) (HPC)) 97 % of control; (endpoint: mean survival time, dose: 25.0 mg/kg/injection, schedule: Q01DX009 (ip), vehicle: Klucel (hydroxypropylcellulose) (HPC)) 96 % of control and 109 % of control; (endpoint: mean survival time, dose: 50.0 mg/kg/injection, schedule: Q01DX009 (ip), vehicle: Klucel (hydroxypropylcellulose) (HPC)) 113 % of control and 103 % of control; (endpoint: mean survival time, dose: 100.0 mg/kg/injection, schedule: Q01DX009 (ip), vehicle: Klucel (hydroxypropylcellulose) (HPC)) 97 % of control.

On to `CN=C(N)N/N=C(\C)c1ccc2sc3ccc(/C(C)=N/NC(N)=NC)cc3c2c1`, for which the T/C was 113 % of control and 124 % of control (endpoint: median survival time, dose: 25.0 mg/kg/injection, schedule: Q01DX009 (ip), vehicle: saline with Tween-80); 112 % of control (endpoint: median survival time, dose: 50.0 mg/kg/injection, schedule: Q01DX009 (ip), vehicle: saline with Tween-80); 117 % of control (endpoint: median survival time, dose: 100.0 mg/kg/injection, schedule: Q01DX009 (ip), vehicle: saline with Tween-80); 119 % of control (endpoint: median survival time, dose: 200.0 mg/kg/injection, schedule: Q01DX009 (ip), vehicle: saline with Tween-80); 119 % of control and 102 % of control (endpoint: median survival time, dose: 400.0 mg/kg/injection, schedule: Q01DX009 (ip), vehicle: saline with Tween-80).

On to `O=C(Nc1cccc(I)c1)OCCCl`, for which the T/C was 89 % of control (endpoint: mean survival time, dose: 100.0 mg/kg/injection, schedule: Q04DX002 (ip), vehicle: saline with Tween-80); 92 % of control (endpoint: mean survival time, dose: 200.0 mg/kg/injection, schedule: Q04DX002 (ip), vehicle: saline with Tween-80); 92 % of control (endpoint: mean survival time, dose: 400.0 mg/kg/injection, schedule: Q04DX002 (ip), vehicle: saline with Tween-80).

For the molecule `O=C1c2ccccc2C(=O)c2c(Cl)cccc21`, the T/C (endpoint: mean survival time, dose: 100.0 mg/kg/injection, schedule: Q01DX009 (ip), vehicle: saline with Tween-80) was 88 % of control; the T/C (endpoint: mean survival time, dose: 100.0 mg/kg/injection, schedule: Q04DX003 (ip), vehicle: saline with Tween-80) was 93 % of control; the T/C (endpoint: mean survival time, dose: 200.0 mg/kg/injection, schedule: Q01DX009 (ip), vehicle: saline with Tween-80) was 86 % of control; the T/C (endpoint: mean survival time, dose: 200.0 mg/kg/injection, schedule: Q04DX003 (ip), vehicle: saline with Tween-80) was 93 % of control; the T/C (endpoint: mean survival time, dose: 400.0 mg/kg/injection, schedule: Q01DX009 (ip), vehicle: saline with Tween-80) is 90 % of control; the T/C (endpoint: mean survival time, dose: 400.0 mg/kg/injection, schedule: Q04DX003 (ip), vehicle: saline with Tween-80) is 91 % of control.

`ClCCCN1CCN(CCCl)CC1`: the T/C (endpoint: median survival time, dose: 2.5 mg/kg/injection, schedule: Q01DX009 (ip), vehicle: saline) was 113 % of control and 115 % of control; the T/C (endpoint: median survival time, dose: 10.0 mg/kg/injection, schedule: Q01DX009 (ip), vehicle: saline) is 155 % of control and 177 % of control and 209 % of control; the T/C (endpoint: median survival time, dose: 20.0 mg/kg/injection, schedule: Q01DX009 (ip), vehicle: saline) was 109 % of control; the T/C (endpoint: median survival time, dose: 40.0 mg/kg/injection, schedule: Q01DX009 (ip), vehicle: saline) was 88 % of control and 90 % of control.

Regarding `O=S(=O)(O)CCCBr`, the T/C is 93 % of control (endpoint: mean survival time, dose: 100.0 mg/kg/injection, schedule: Q01DX009 (ip), vehicle: saline); 105 % of control (endpoint: mean survival time, dose: 200.0 mg/kg/injection, schedule: Q01DX009 (ip), vehicle: saline); 100 % of control (endpoint: mean survival time, dose: 400.0 mg/kg/injection, schedule: Q01DX009 (ip), vehicle: saline).

In the case of `CN1C(=O)NC(c2cccc(N(CCCl)CCCl)c2)C1=O` (stereo not given), the T/C (endpoint: mean survival time, dose: 25.0 mg/kg/injection, schedule: Q01DX001 (ip), vehicle: Klucel (hydroxypropylcellulose) (HPC)) is 116 % of control and 108 % of control; the T/C (endpoint: mean survival time, dose: 50.0 mg/kg/injection, schedule: Q01DX001 (ip), vehicle: Klucel (hydroxypropylcellulose) (HPC)) was 120 % of control; the T/C (endpoint: mean survival time, dose: 100.0 mg/kg/injection, schedule: Q01DX001 (ip), vehicle: Klucel (hydroxypropylcellulose) (HPC)) is 121 % of control.

`CCC(C)(CC)OC(=O)c1ccc([N+](=O)[O-])cc1`: the T/C is 100 % of control (endpoint: mean survival time, dose: 100.0 mg/kg/injection, schedule: Q01DX001 (ip), vehicle: saline); 98 % of control (endpoint: mean survival time, dose: 200.0 mg/kg/injection, schedule: Q01DX001 (ip), vehicle: saline); 98 % of control (endpoint: mean survival time, dose: 400.0 mg/kg/injection, schedule: Q01DX001 (ip), vehicle: saline).
